From patent US8952034B2, “Fused heterocyclic compounds as ion channel modulators” (Gilead Sciences, Inc., priority 2009, dated 2015) come the findings set out here.

In the experiment the target is wild-type human cardiac sodium channel, hNav1.5 (Homo sapiens, UniProt Q14524). Description: Late INa screening assay (automated whole cell patch clamp, PatchXpress). The note with it: HEK293 cells expressing hNav1.5, late INa generated with 10 μM Tefluthrin (or 50 nM ATX II); for inhibition at 1 µM: compound at 1 μM, read-out: LateINa_1 uM (percent block of late INa); for inhibition at 10 µM: compound at 10 μM, read-out: LateINa_10 uM (percent block of late INa). The experiment is classed as cell-based. An outline of the steps: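 Late sodium current through wild-type human hNav1.5 stably expressed in HEK293 cells (no beta subunits) was recorded by automated whole-cell patch clamp on a PatchXpress 7000A at 24-27° C. Late INa was induced with 10 μM Tefluthrin or 50 nM ATX II. Cells were stepped from −120 mV to −20 mV for 250 ms at 0.1 Hz, and percent block was normalized to current in Na-free extracellular solution.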
Sequence of wild-type human cardiac sodium channel, hNav1.5 (Q14524 whole entry): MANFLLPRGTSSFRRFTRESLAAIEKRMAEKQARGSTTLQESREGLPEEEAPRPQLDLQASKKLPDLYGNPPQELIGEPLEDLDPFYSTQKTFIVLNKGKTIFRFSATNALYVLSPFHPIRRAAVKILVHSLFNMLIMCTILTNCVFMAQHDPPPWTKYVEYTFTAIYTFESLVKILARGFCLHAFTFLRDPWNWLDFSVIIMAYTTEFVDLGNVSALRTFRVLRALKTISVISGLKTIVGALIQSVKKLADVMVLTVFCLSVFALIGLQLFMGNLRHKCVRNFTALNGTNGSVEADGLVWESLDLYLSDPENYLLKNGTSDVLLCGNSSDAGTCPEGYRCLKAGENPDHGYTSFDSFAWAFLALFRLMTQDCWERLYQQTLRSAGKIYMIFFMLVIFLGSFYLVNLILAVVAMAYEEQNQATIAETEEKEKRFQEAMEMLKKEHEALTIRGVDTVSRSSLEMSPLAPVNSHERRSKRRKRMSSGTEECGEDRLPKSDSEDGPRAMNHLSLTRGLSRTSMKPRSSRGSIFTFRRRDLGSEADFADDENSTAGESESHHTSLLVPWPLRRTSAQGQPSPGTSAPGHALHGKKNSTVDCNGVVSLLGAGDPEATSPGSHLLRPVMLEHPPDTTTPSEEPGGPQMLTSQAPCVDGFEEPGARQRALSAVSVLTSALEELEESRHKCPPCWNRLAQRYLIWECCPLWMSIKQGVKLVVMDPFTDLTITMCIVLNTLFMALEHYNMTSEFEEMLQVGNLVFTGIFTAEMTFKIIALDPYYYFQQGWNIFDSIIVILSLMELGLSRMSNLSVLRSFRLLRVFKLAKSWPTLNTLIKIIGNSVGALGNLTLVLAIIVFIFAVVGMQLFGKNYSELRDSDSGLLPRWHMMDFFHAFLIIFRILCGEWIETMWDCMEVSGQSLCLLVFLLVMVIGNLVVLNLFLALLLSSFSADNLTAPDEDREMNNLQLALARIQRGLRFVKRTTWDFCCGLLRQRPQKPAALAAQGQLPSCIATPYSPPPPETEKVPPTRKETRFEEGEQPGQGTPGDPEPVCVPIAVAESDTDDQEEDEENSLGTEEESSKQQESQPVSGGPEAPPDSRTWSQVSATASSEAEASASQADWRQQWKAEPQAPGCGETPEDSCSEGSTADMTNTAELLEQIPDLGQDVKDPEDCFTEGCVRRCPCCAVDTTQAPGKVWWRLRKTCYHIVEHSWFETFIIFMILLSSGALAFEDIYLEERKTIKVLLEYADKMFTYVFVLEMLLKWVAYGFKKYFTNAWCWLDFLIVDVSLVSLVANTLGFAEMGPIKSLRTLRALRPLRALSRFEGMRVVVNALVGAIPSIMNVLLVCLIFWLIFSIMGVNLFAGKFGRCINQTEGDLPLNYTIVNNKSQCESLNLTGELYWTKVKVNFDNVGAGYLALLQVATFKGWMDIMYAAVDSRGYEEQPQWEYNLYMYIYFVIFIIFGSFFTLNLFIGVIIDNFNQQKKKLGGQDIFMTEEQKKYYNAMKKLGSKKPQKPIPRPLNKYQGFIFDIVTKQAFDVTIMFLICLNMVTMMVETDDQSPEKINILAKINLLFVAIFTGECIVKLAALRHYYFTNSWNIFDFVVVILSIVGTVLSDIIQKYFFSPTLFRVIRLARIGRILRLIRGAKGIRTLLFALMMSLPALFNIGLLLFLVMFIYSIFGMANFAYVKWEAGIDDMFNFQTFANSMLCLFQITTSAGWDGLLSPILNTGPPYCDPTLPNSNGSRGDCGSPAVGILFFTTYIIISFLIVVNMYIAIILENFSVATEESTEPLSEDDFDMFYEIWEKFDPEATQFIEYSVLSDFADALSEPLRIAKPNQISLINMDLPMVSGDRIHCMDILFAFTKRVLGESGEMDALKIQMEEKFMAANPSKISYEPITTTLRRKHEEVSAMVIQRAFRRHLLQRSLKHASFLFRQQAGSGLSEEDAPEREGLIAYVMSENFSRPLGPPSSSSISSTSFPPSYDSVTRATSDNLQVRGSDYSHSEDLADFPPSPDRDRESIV
For orientation: The patch-clamp technique gives a direct electrical read-out from membranes.

With `CC(C)(O)C(F)(F)c1nnc2ccc(-c3ccc(OC(F)(F)F)cc3)cn12` [BHN-176, 1,1-difluoro-2-methyl-1-{6-[4-(trifluoromethoxy)phenyl][1,2,4]triazolo[4,3-a]pyridin-3-yl}propan-2-ol], the inhibition at 1 µM was determined as 15.2%.

`N#Cc1cc(Cl)ccc1Nc1ccc(-c2ccc3nnc(C(F)(F)F)n3c2)cc1` [BHN-276, 5-chloro-2-({4-[3-(trifluoromethyl)[1,2,4]triazolo[4,3-a]pyridin-6-yl]phenyl}amino)benzonitrile]: the inhibition at 1 µM was determined as 16.2%.

On to `COc1ncc(-c2cc(OC(F)(F)F)ccc2-c2ccc3nnc(C(F)(F)F)n3c2)cn1` [BHN-131, 6-[2-(2-methoxypyrimidin-5-yl)-4-(trifluoromethoxy)phenyl]-3-(trifluoromethyl)[1,2,4]triazolo[4,3-a]pyridine], for which the inhibition at 1 µM amounted to 18.5%.

Regarding `FC(F)(F)Oc1ccc(-c2ccc3nnnn3c2)cc1` [BHN-98, 6-[4-(trifluoromethoxy)phenyl]tetrazolo[1,5-a]pyridine], the inhibition at 1 µM came out at 54.1%.

In the case of `Cc1noc(-c2cc(-c3ccc4nnc(C(F)(F)F)n4c3)ccc2OC(F)(F)F)n1` [BHN-182, 6-[3-(3-methyl-1,2,4-oxadiazol-5-yl)-4-(trifluoromethoxy)phenyl]-3-(trifluoromethyl)[1,2,4]triazolo[4,3-a]pyridine], the inhibition at 1 µM was found to be 18.9%.

For the molecule `FC(F)(F)Oc1ccc(-c2ccc3nnc(C(F)(F)OCc4nc(-c5ccccc5)oc4C(F)(F)F)n3c2)cc1` [BHN-313, 3-(difluoro{[2-phenyl-5-(trifluoromethyl)-1,3-oxazol-4-yl]methoxy}methyl)-6-[4-(trifluoromethoxy)phenyl][1,2,4]triazolo[4,3-a]pyridine], the inhibition at 1 µM came to 50%.

With `FC(F)(F)Oc1ccc(-c2ccc3nnc(COCc4ccccn4)n3c2)cc1` [BHN-244, 3-[(pyridin-2-ylmethoxy)methyl]-6-[4-(trifluoromethoxy)phenyl][1,2,4]triazolo[4,3-a]pyridine], the inhibition at 1 µM was 17.5%.

For the molecule `FC(F)(F)Oc1ccc(-c2ccc3nnc(C(F)(F)F)n3c2)cc1Cl` [BHN-164, 6-[3-chloro-4-(trifluoromethoxy)phenyl]-3-(trifluoromethyl)[1,2,4]triazolo[4,3-a]pyridine], the inhibition at 1 µM was found to be 50.7%.

Regarding `FC(F)(F)c1nnc2ccc(-c3ccc(Oc4ccncc4)cc3)cn12` [BHN-113, 6-[4-(pyridin-4-yloxy)phenyl]-3-(trifluoromethyl)[1,2,4]triazolo[4,3-a]pyridine], the inhibition at 1 µM came out at 20.1%.

As for `Fc1cc(OC(F)(F)F)ccc1-c1ccc2nnc(C(F)(F)F)n2c1` [BHN-145, 6-[2-fluoro-4-(trifluoromethoxy)phenyl]-3-(trifluoromethyl)[1,2,4]triazolo[4,3-a]pyridine], the inhibition at 1 µM came out at 55.3%.

With `Fc1cc(-c2ccc3nnc(C(F)(F)F)n3c2)ccc1Cl` [BHN-14, 6-(4-chloro-3-fluorophenyl)-3-(trifluoromethyl)[1,2,4]triazolo[4,3-a]pyridine], the inhibition at 10 µM is 28.3%.

With `FC(F)(F)Oc1ccc(COCc2nnc3ccc(-c4ccc(OC(F)(F)F)cc4)cn23)cc1` [BHN-242, 3-({[4-(trifluoromethoxy)benzyl]oxy}methyl)-6-[4-(trifluoromethoxy)phenyl][1,2,4]triazolo[4,3-a]pyridine], the inhibition at 1 µM came to 72.2%.

In the case of `FC(F)(F)Oc1ccc(-c2ccc3nnc(C(F)(F)F)n3c2)cc1-c1nnco1` [BHN-153, 6-[3-(1,3,4-oxadiazol-2-yl)-4-(trifluoromethoxy)phenyl]-3-(trifluoromethyl)[1,2,4]triazolo[4,3-a]pyridine], the inhibition at 1 µM is 17.2%.

Take `FC(F)(F)Oc1ccc(-c2ccc3nnc(COCc4ccc(C(F)(F)F)cc4)n3c2)cc1` [BHN-226, 6-[4-(trifluoromethoxy)phenyl]-3-({[4-(trifluoromethyl)benzyl]oxy}methyl)[1,2,4]triazolo[4,3-a]pyridine]: the inhibition at 1 µM was found to be 59.3%.

As to `Clc1ccc(Oc2ccc(-c3ccc4nnnn4c3)cc2)cc1` [BHN-218, 6-[4-(4-chlorophenoxy)phenyl]tetrazolo[1,5-a]pyridine], the inhibition at 1 µM stood at 36%.

Take `FC(F)(F)Oc1ccc(-c2ccc3nnc(C(F)(F)OCc4noc(C5CCC5)n4)n3c2)cc1` [BHN-259, 3-{[(5-cyclobutyl-1,2,4-oxadiazol-3-yl)methoxy](difluoro)methyl}-6-[4-(trifluoromethoxy)phenyl][1,2,4]triazolo[4,3-a]pyridine]: the inhibition at 1 µM is 71.6%.

For the molecule `FC(F)(F)Oc1ccc(-c2ccc3nnc(C(F)(F)OCc4ccccc4-n4cccn4)n3c2)cc1` [BHN-328, 3-(difluoro{[2-(1H-pyrazol-1-yl)benzyl]oxy}methyl)-6-[4-(trifluoromethoxy)phenyl][1,2,4]triazolo[4,3-a]pyridine], the inhibition at 1 µM stood at 70.9%.

Regarding `FC(F)(F)Oc1ccc(-c2ccc3nnc(C(F)(F)OCc4cccnc4)n3c2)cc1` [BHN-204, 3-[difluoro(pyridin-3-ylmethoxy)methyl]-6-[4-(trifluoromethoxy)phenyl][1,2,4]triazolo[4,3-a]pyridine], the inhibition at 1 µM came to 43.9%.

Take `FC(F)(F)Oc1ccc(-c2ccc3nnc(C(F)(F)OCc4cc(-c5ccc(C6CC6)nc5)ccn4)n3c2)cc1` [BHN-316, 6-cyclopropyl-2′-[(difluoro{6-[4-(trifluoromethoxy)phenyl][1,2,4]triazolo[4,3-a]pyridin-3-yl}methoxy)methyl]-3,4′-bipyridine]: the inhibition at 1 µM was determined as 59%.

Consider `Cc1ccccc1Oc1nnc2ccc(-c3ccc(OC(F)(F)F)cc3)cn12` [BHN-273, 3-(2-methylphenoxy)-6-[4-(trifluoromethoxy)phenyl][1,2,4]triazolo[4,3-a]pyridine], for which the inhibition at 1 µM is 68.7%.

In the case of `FC(F)(F)c1ccc(-c2ccc3nnc(C(F)(F)F)n3c2)cn1` [BHN-91, 3-(trifluoromethyl)-6-[6-(trifluoromethyl)pyridin-3-yl][1,2,4]triazolo[4,3-a]pyridine], the inhibition at 10 µM was 46.7%.

Turning to `FC(F)(F)Oc1ccc(-c2ccc3nnc(C(F)(F)OCc4noc(C5CC5)n4)n3c2)cc1` [BHN-206, 3-{[(5-cyclopropyl-1,2,4-oxadiazol-3-yl)methoxy](difluoro)methyl}-6-[4-(trifluoromethoxy)phenyl][1,2,4]triazolo[4,3-a]pyridine], the inhibition at 1 µM turned out to be 44.7%.

For the molecule `FC(F)(F)c1nnc2ccc(-c3ccc(-n4cncn4)cc3)cn12` [BHN-61, 6-[4-(1H-1,2,4-triazol-1-yl)phenyl]-3-(trifluoromethyl)[1,2,4]triazolo[4,3-a]pyridine], the inhibition at 10 µM was 23.5%.

On to `FC(F)(F)Oc1ccc(-c2ccc3nnc(COC(F)(F)c4cccnc4)n3c2)cc1` [BHN-257, 3-{[difluoro(pyridin-3-yl)methoxy]methyl}-6-[4-(trifluoromethoxy)phenyl][1,2,4]triazolo[4,3-a]pyridine], for which the inhibition at 1 µM was determined as 46.2%.

With `Cc1oc(-c2ccccc2)nc1COC(F)(F)c1nnc2ccc(-c3ccc(OC(F)(F)F)cc3)cn12` [BHN-229, 3-{difluoro[(5-methyl-2-phenyl-1,3-oxazol-4-yl)methoxy]methyl}-6-[4-(trifluoromethoxy)phenyl][1,2,4]triazolo[4,3-a]pyridine], the inhibition at 1 µM is 72.2%.

Consider `COCC(F)(F)c1nnc2ccc(-c3ccc(OCC(F)(F)F)nc3)cn12` [BHN-144, 3-(1,1-difluoro-2-methoxyethyl)-6-[6-(2,2,2-trifluoroethoxy)pyridin-3-yl][1,2,4]triazolo[4,3-a]pyridine], for which the inhibition at 1 µM is 36.4%.

Take `Fc1cccc(F)c1CCOC(F)(F)c1nnc2ccc(-c3ccc(OC(F)(F)F)cc3)cn12` [BHN-322, 3-{[2-(2,6-difluorophenyl)ethoxy](difluoro)methyl}-6-[4-(trifluoromethoxy)phenyl][1,2,4]triazolo[4,3-a]pyridine]: the inhibition at 1 µM was 72.5%.

Regarding `CC(=O)Nc1cc(-c2ccc(OC(F)(F)F)cc2C)cn2c(C)nnc12` [BHN-76, N-{3-methyl-6-[2-methyl-4-(trifluoromethoxy)phenyl][1,2,4]triazolo[4,3-a]pyridin-8-yl}acetamide], the inhibition at 10 µM came to 31.9%.

With `CNC(=O)c1cccc(-c2nnc3ccc(-c4ccc(OC(F)(F)F)cc4)cn23)c1` [BHN-99, N-methyl-3-{6-[4-(trifluoromethoxy)phenyl][1,2,4]triazolo[4,3-a]pyridin-3-yl}benzamide], the inhibition at 1 µM was determined as 19.6%.

As to `CCNc1nnc2ccc(-c3ccc(OC(F)(F)F)cc3)cn12` [BHN-331, N-ethyl-6-[4-(trifluoromethoxy)phenyl][1,2,4]triazolo[4,3-a]pyridin-3-amine], the inhibition at 10 µM was found to be 38.2%.

In the case of `FC(F)c1nnc2ccc(-c3ccc(OC(F)(F)F)cc3)nn12` [BHN-12, 3-(difluoromethyl)-6-[4-(trifluoromethoxy)phenyl][1,2,4]triazolo[4,3-b]pyridazine], the inhibition at 1 µM came to 39.6% and the inhibition at 10 µM was 79.7%.

Turning to `FC(F)(F)c1ncc2ccc(-c3nc4ccccc4s3)cn12` [BHN-213, 2-[3-(trifluoromethyl)imidazo[1,5-a]pyridin-6-yl]-1,3-benzothiazole], the inhibition at 1 µM worked out at 24%.

As to `N#Cc1nc(C(F)(F)F)n2cc(-c3ccc(OC(F)(F)F)cc3)ccc12` [BHN-117, 6-[4-(trifluoromethoxy)phenyl]-3-(trifluoromethyl)imidazo[1,5-a]pyridine-1-carbonitrile], the inhibition at 1 µM is 66.3%.

For `FC(F)c1nnc2ccc(-c3ccc(OCC(F)(F)F)nc3)nn12` [BHN-237, 3-(difluoromethyl)-6-[6-(2,2,2-trifluoroethoxy)pyridin-3-yl][1,2,4]triazolo[4,3-b]pyridazine], the inhibition at 1 µM was determined as 44.7%.
